Measured values as given in PMC5507466, “The ubiquitin-conjugating enzyme CDC34 is essential for cytokinesis in contrast to putative subunits of a SCF complex in Trypanosoma brucei” (PLoS Neglected Tropical Diseases, 2017).

Biological target: T1, TbCDC34 (Trypanosoma brucei, UniProt Q382B7)
T1 construct: gene Tb11.01.5790; N-terminal 6His-tagged, expressed in E. coli BL21(DE3)+pLysE, Ni-NTA purified; catalytic Cys84, Ser86
T1 sequence (Q382B7 1-247): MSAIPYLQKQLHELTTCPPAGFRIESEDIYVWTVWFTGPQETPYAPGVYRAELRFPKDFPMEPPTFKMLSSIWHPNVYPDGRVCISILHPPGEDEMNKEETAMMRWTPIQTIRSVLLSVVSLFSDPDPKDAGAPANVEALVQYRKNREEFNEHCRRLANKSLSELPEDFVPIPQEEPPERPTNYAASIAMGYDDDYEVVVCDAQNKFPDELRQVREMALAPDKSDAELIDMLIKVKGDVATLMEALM
Experiment: in vitro gel-based ubiquitination assay (anti-ubiquitin and anti-His western blot)
Assay type: biochemical
Conditions: 300 μM CC0651 vs DMSO; 10 μM E2, 100 nM human E1, 5 μM human ubiquitin; ATP; 37 °C, 0-4 h

## COCC(=O)N[C@@H](Cc1ccc(-c2cc(Cl)cc(Cl)c2)cc1)[C@H](O)[C@@H](O)C(=O)O [CC0651]
  in vitro gel-based ubiquitination assay (anti-ubiquitin and anti-His western blo): addition of CC0651 to the reaction had modest, but detectable effect on TbCDC34 activity
